Assay results as given in PubChem BioAssay (NCI).
Values after ≈ are worked out from the molar mass of the structure shown.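 Five compound concentrations were applied to cells in 96-well plates for 48 hours; endpoints were derived by simple linear interpolation of the resulting dose-response curve. GI50 is the concentration that inhibits growth by half. At the TGI there is no net growth.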

Columns and labels:
Assay in all cases: NCI tumour cell line growth inhibition, 48 h
RXF-631 renal = tested on: RXF-631 renal
P388 leukemia = tested on: P388 leukemia
P388/ADR leukemia = tested on: P388/ADR leukemia
SN12K1 renal = tested on: SN12K1 renal

SMILES: COc1cc2nncc(Sc3cnnc4ccccc34)c2cc1OC
- TGI (RXF-631 renal): 53.6 µM

SMILES: COC(=O)c1ccc2c(c1)C(NC(C)=O)CCc1cc(OC)c(OC)c(OC)c1-2 (centres undefined)
- TGI (RXF-631 renal): > 6.91 µM

SMILES: CSc1ccc(/C=C2\CNC/C(=C\c3ccc(SC)cc3)C2=O)cc1
- GI50 (P388 leukemia): 150 µg/mL (≈ 408 µM)
- TGI (P388 leukemia): 150 µg/mL (≈ 408 µM)
- GI50 (P388/ADR leukemia): 150 µg/mL (≈ 408 µM)
- TGI (P388/ADR leukemia): 150 µg/mL (≈ 408 µM)
- TGI (RXF-631 renal): 175 µM
- GI50 (SN12K1 renal): 15.5 µg/mL (≈ 42.1 µM)
- TGI (SN12K1 renal): 103 µg/mL (≈ 280 µM)

SMILES: CSc1nc2c(c(O)c(C)c(=O)n2C2OC(COC(C)=O)C(OC(C)=O)C(OC(C)=O)C2OC(C)=O)c(=O)n1C (centres undefined)
- TGI (RXF-631 renal): > 100 µM

SMILES: O=C(C(=O)c1ccc(Cc2ccc(C(=O)C(=O)c3ccccc3)cc2)cc1)c1ccccc1
- TGI (RXF-631 renal): > 100 µM

SMILES: COC1/C=C/OC2(C)Oc3c(C)c(O)c4c(c3C2=O)C(=O)C=C(NC(=O)/C(C)=C\C=C\C(C)C(OC=O)C(C)C(O)C(C)C(OC(C)=O)C1C)C4=O (centres undefined)
- TGI (RXF-631 renal): 35.7 µM

SMILES: CC(=O)N(CCN)CCN
- TGI (RXF-631 renal): > 10 µM

SMILES: Fc1cccc(Cl)c1C1SCc2nc3ccccc3n21 (centres undefined)
- TGI (RXF-631 renal): > 100 µM

SMILES: Cc1cc(O)c2c(c1)C(O)(c1ccc3c(c1O)C(=O)c1c(O)cc(C)cc1C3(O)C1OC(CO)C(O)C(O)C1O)c1cccc(O)c1C2=O (centres undefined)
- TGI (RXF-631 renal): 29.5 µM

SMILES: Cc1c(C)c2cc3c(=O)ccoc3c(C)c2oc1=O
- TGI (RXF-631 renal): > 100 µM

SMILES: O=C1[C@@H](c2ccc(Cl)cc2)[C@H]2CC=C[C@H]2N1O
- TGI (RXF-631 renal): > 100 µM

SMILES: O=[N+]([O-])c1ccc(N=Nc2c(O)[nH]c3ccc([N+](=O)[O-])cc23)cc1
- TGI (RXF-631 renal): 62.7 µM

SMILES: C/C(=N/N(C=O)C[n+]1ccccc1)C(CN(CC(C)C)CC(C)C)C(=O)Nc1ccc(C)cc1C (centres undefined)
- TGI (RXF-631 renal): > 100 µM
